Laboratory results published in ChEMBL document CHEMBL1201862, “PubChem BioAssay data set” (2004).
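Dose response: 5 concentrations. Exposure: 48 h. Format: 96-well plates. Endpoint: linear interpolation; highest concentration if not reached. Abbreviation: GI50, concentration required for 50% inhibition of growth.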 Calls of active or inactive are those of the source. Cut-off read from the data, not from the text of the source: active = GI50 up to about 1.1 µM and inactive = higher.

Columns and labels:
Test in all cases: NCI anticancer screen, dose series, 48 h
[1] = tested on: BT-549
[2] = tested on: UO-31
[3] = tested on: LOX IMVI
[4] = tested on: SK-MEL-28
[5] = tested on: NCI/ADR-RES
[6] = tested on: ACHN
[7] = tested on: HOP-62
[8] = tested on: HCC 2998
[9] = tested on: OVCAR-5
[10] = tested on: K562
[11] = tested on: UACC-62
[12] = tested on: UACC-257
[13] = tested on: CAKI-1
[14] = tested on: DU-145
[15] = tested on: A498
[16] = tested on: A549
[17] = tested on: T47D
[18] = tested on: SF-295
[19] = tested on: OVCAR-8
[20] = tested on: SF-539
[21] = tested on: SW-620
[22] = tested on: MCF7
[23] = tested on: PC-3
[24] = tested on: NCI-H23
[25] = tested on: OVCAR-4
[26] = tested on: 786-0
[27] = tested on: SN12C
[28] = tested on: EKVX
[29] = tested on: MDA-MB-435
[30] = tested on: U-251
[31] = tested on: Hs-578T
[32] = tested on: SK-MEL-2
[33] = tested on: CCRF-CEM
[34] = tested on: SK-MEL-5
[35] = tested on: COLO 205
[36] = tested on: TK-10
[37] = tested on: SF-268
[38] = tested on: IGROV-1
[39] = tested on: KM12
[40] = tested on: RPMI-8226
[41] = tested on: M14
[42] = tested on: HCT-15
[43] = tested on: HT-29
[44] = tested on: HOP-92
[45] = tested on: SNB-19
[46] = tested on: MDA-N
[47] = tested on: NCI-H226
[48] = tested on: MOLT-4
[49] = tested on: SR
[50] = tested on: SNB-75
[51] = tested on: MDA-MB-231
[52] = tested on: NCI-H460
[53] = tested on: HL-60
[54] = tested on: OVCAR-3
[55] = tested on: HCT-116
[56] = tested on: Malme-3M
[57] = tested on: NCI-H522
[58] = tested on: RXF 393
[59] = tested on: SK-OV-3

SMILES: OC1=C(c2ccccc2)C2=NCCN2c2ccccc21
- GI50 [1]: 95.7 µM (inactive)
- GI50 [2]: 36.9 µM (inactive)
- GI50 [3]: 31.7 µM (inactive)
- GI50 [4]: 79.6 µM (inactive)
- GI50 [5]: 52.6 µM (inactive)
- GI50 [6]: 40.6 µM (inactive)
- GI50 [7]: 31.8 µM (inactive)
- GI50 [8]: 41.1 µM (inactive)
- GI50 [9]: 66.1 µM (inactive)
- GI50 [10]: 21.8 µM (inactive)
- GI50 [11]: 29.2 µM (inactive)
- GI50 [12]: 93.1 µM (inactive)
- GI50 [13]: > 100 µM (inactive)
- GI50 [14]: 84.1 µM (inactive)
- GI50 [15]: 98.4 µM (inactive)
- GI50 [16]: 50.6 µM (inactive)
- GI50 [17]: > 100 µM (inactive)
- GI50 [18]: 46.1 µM (inactive)
- GI50 [19]: 51.1 µM (inactive)
- GI50 [20]: 43.8 µM (inactive)
- GI50 [21]: 78.7 µM (inactive)
- GI50 [22]: 42.1 µM (inactive)
- GI50 [23]: 38.1 µM (inactive)
- GI50 [24]: 33.5 µM (inactive)
- GI50 [25]: > 100 µM (inactive)
- GI50 [26]: 42.5 µM (inactive)
- GI50 [27]: > 100 µM (inactive)
- GI50 [28]: 62.5 µM (inactive)
- GI50 [29]: 39.1 µM (inactive)
- GI50 [30]: 73.5 µM (inactive)
- GI50 [31]: 28.1 µM (inactive)
- GI50 [32]: 18.7 µM (inactive)
- GI50 [33]: 51.5 µM (inactive)
- GI50 [34]: 27.8 µM (inactive)
- GI50 [35]: 47 µM (inactive)
- GI50 [36]: 94 µM (inactive)
- GI50 [37]: 45.9 µM (inactive)
- GI50 [38]: 40.9 µM (inactive)
- GI50 [39]: 31.8 µM (inactive)
- GI50 [40]: 36.4 µM (inactive)
- GI50 [41]: 57.8 µM (inactive)
- GI50 [42]: 33.3 µM
- GI50 [43]: 55.2 µM (inactive)
- GI50 [44]: > 100 µM (inactive)
- GI50 [45]: 20 µM (inactive)
- GI50 [46]: 41.2 µM (inactive)
- GI50 [47]: 48.9 µM (inactive)
- GI50 [48]: 46.8 µM (inactive)
- GI50 [49]: 87.3 µM (inactive)
- GI50 [50]: 23.1 µM (inactive)
- GI50 [51]: > 100 µM (inactive)
- GI50 [52]: 49.9 µM (inactive)
- GI50 [53]: 45.5 µM (inactive)
- GI50 [54]: 18.2 µM (inactive)
- GI50 [55]: 34.7 µM (inactive)

SMILES: COC(=O)c1c(O)ccc2c1c1c(n2Cc2ccccc2Cl)C(=O)c2ccccc2C1=O
- GI50 [1]: 12.6 µM (inactive)
- GI50 [56]: 17 µM (inactive)
- GI50 [2]: 10.9 µM (inactive)
- GI50 [4]: 15.6 µM (inactive)
- GI50 [5]: 12.1 µM (inactive)
- GI50 [6]: 16.5 µM (inactive)
- GI50 [7]: 26 µM (inactive)
- GI50 [8]: 14.6 µM (inactive)
- GI50 [9]: 19.5 µM (inactive)
- GI50 [10]: 14.3 µM (inactive)
- GI50 [11]: 14.8 µM (inactive)
- GI50 [12]: 17.9 µM (inactive)
- GI50 [13]: 13.7 µM (inactive)
- GI50 [14]: 15.5 µM (inactive)
- GI50 [15]: 16.5 µM (inactive)
- GI50 [16]: 8.69 µM (inactive)
- GI50 [57]: 10.9 µM (inactive)
- GI50 [17]: 7.01 µM (inactive)
- GI50 [18]: 14.6 µM (inactive)
- GI50 [19]: 16 µM (inactive)
- GI50 [20]: 15.4 µM (inactive)
- GI50 [22]: 6.73 µM (inactive)
- GI50 [23]: 11.5 µM (inactive)
- GI50 [24]: 13.2 µM (inactive)
- GI50 [25]: 2.93 µM (inactive)
- GI50 [26]: 16.6 µM (inactive)
- GI50 [27]: 10.2 µM (inactive)
- GI50 [28]: 16.9 µM (inactive)
- GI50 [29]: 10.7 µM (inactive)
- GI50 [30]: 12.6 µM (inactive)
- GI50 [31]: 21.6 µM (inactive)
- GI50 [32]: 17.4 µM (inactive)
- GI50 [58]: 16.3 µM (inactive)
- GI50 [33]: 8.38 µM (inactive)
- GI50 [34]: 12.5 µM (inactive)
- GI50 [35]: 4.13 µM (inactive)
- GI50 [36]: 16.1 µM (inactive)
- GI50 [37]: 12.4 µM (inactive)
- GI50 [38]: 13.6 µM (inactive)
- GI50 [39]: 10.1 µM (inactive)
- GI50 [40]: 5.98 µM (inactive)
- GI50 [41]: 15.5 µM (inactive)
- GI50 [42]: 12.7 µM
- GI50 [43]: 1.17 µM (inactive)
- GI50 [44]: 14.8 µM (inactive)
- GI50 [45]: 16 µM (inactive)
- GI50 [46]: 12.8 µM (inactive)
- GI50 [47]: 17.7 µM (inactive)
- GI50 [48]: 7.03 µM (inactive)
- GI50 [59]: 12.9 µM (inactive)
- GI50 [49]: 14.6 µM (inactive)
- GI50 [51]: 15.3 µM (inactive)
- GI50 [52]: 6.78 µM (inactive)
- GI50 [53]: 16.9 µM (inactive)
- GI50 [54]: 10 µM (inactive)
- GI50 [55]: 10.5 µM (inactive)
